Here are results for five compounds from PMC10175918 (Communications Biology, 2023).

Where two headings read alike, the source gives them in different places.

Holding throughout (experiment): TGFα-shedding assay-based GPCR screening with chimeric Gα subunit proteins
Holding throughout (type): cell-based

Assay [1] concerns the target T1, 348 GPCRs (Homo sapiens, UniProt P28336).
T1 construct: expressed in transfected cells; host or cells: HEK293A
Conditions: 10µM, Favipiravir 100μM.

Assay [2] addresses T2, 348 GPCRs (Homo sapiens, UniProt P21462).
T2 sequence (P21462 1-350): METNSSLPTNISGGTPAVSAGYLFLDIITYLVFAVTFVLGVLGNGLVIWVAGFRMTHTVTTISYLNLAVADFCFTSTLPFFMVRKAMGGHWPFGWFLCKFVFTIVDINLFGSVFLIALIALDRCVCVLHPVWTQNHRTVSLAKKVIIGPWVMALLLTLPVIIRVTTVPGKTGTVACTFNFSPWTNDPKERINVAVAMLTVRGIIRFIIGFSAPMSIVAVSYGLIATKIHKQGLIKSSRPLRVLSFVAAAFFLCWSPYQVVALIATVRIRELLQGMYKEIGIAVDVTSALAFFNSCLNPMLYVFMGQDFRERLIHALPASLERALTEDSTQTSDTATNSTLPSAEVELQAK
The conditions noted are these: 10µM, Favipiravir 100μM.

The target of assay [3] is 348 GPCRs (Homo sapiens, UniProt P28566). Conditions: 5-HT1E (5-hydroxytryptamine receptor 1E); 10µM, Favipiravir 100μM.
Chain of 348 GPCRs (Homo sapiens, UniProt P28566) (P28566 whole entry): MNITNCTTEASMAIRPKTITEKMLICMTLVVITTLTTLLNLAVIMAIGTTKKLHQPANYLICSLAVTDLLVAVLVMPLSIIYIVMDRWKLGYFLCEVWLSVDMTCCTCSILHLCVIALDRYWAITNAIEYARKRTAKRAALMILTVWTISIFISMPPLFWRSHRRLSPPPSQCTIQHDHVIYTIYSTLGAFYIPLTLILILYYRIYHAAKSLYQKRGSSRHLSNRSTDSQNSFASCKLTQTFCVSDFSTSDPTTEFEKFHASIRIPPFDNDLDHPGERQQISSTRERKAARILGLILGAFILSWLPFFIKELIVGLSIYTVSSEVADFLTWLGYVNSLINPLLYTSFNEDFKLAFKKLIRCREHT
Assay [4] addresses T3, 348 GPCRs (Homo sapiens, UniProt Q96LB0).
T3 construct: expressed in transfected cells; host or cells: HEK293A
The conditions noted are these: 10µM, Favipiravir 100μM.

The target of assay [5] is 348 GPCRs (Homo sapiens, UniProt P35346). The conditions noted are these: 10µM, Favipiravir 100μM.
Chain of 348 GPCRs (Homo sapiens, UniProt P35346) (P35346 whole entry): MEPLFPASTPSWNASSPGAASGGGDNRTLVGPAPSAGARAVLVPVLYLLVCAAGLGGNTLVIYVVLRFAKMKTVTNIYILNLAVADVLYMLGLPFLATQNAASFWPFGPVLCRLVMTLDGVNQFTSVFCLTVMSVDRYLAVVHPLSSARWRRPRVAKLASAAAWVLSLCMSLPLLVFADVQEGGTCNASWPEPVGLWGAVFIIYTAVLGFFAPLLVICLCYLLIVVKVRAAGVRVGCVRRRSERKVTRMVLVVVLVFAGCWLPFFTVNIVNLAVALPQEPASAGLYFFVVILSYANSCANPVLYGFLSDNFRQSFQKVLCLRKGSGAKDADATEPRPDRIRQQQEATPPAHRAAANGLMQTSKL
Assay [6] has as its target T4, 348 GPCRs (Homo sapiens, UniProt Q96RI0).
T4 construct: expressed in transfected cells; host or cells: HEK293A
T4 sequence (Q96RI0 18-385): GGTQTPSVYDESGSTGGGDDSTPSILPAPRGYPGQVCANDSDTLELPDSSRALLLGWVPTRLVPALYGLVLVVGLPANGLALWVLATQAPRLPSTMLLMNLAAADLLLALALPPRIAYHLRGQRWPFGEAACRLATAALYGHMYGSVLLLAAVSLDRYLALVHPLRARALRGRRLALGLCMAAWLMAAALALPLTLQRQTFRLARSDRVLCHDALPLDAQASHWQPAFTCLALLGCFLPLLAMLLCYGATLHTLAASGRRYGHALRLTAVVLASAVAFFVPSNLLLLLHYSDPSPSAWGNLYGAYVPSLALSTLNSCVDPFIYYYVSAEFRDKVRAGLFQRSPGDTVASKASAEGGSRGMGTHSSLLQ
The conditions noted are these: 10µM, Favipiravir 100μM.

Assay [7] concerns the target T5, 348 GPCRs (Homo sapiens, UniProt P21731).
T5 construct: expressed in transfected cells; host or cells: HEK293A
T5 sequence (P21731 1-343): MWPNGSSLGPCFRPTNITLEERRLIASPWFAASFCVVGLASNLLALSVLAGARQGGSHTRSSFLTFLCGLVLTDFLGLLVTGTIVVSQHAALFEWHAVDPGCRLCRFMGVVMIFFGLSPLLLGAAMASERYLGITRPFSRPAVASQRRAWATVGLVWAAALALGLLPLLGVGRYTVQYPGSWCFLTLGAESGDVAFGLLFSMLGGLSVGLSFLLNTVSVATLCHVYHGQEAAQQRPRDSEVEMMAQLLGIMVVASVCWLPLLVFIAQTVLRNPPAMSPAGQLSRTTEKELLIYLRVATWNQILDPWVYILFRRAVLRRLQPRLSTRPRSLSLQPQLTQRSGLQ
Conditions: 10µM, Favipiravir 100μM.

Assay [8] deals with T6, 348 GPCRs (Homo sapiens, UniProt P47211).
T6 sequence (P47211 1-349): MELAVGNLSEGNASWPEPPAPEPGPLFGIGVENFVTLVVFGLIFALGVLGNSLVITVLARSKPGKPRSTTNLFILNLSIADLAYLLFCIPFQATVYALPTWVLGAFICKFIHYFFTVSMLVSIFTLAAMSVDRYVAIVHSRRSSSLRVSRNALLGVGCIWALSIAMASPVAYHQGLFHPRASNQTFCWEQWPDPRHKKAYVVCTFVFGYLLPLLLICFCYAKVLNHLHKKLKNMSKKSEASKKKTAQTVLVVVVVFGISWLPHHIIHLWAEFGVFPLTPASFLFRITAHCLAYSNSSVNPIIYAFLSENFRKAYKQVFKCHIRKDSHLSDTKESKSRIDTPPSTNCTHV
The conditions noted are these: 10µM, Favipiravir 100μM.

Assay [9] concerns the target T7, 348 GPCRs (Homo sapiens, UniProt Q92847).
T7 construct: expressed in transfected cells; host or cells: HEK293A
Conditions: 10µM, Favipiravir 100μM.

[10] abbreviates: NMBR (neuromedin B receptor), read-out: % GPCR activation compared to TPA.
Setting [11] is: FPR1 (formyl peptide receptor 1), read-out: % GPCR activation compared to TPA.
Where [12] appears, read: MRGPRX3 (MAS-related GPR, member X3), read-out: % GPCR activation compared to TPA.
Setting [13] is: SSTR5 (somatostatin receptor 5), read-out: % GPCR activation compared to TPA.
[14] abbreviates: F2RL3 (coagulation factor II (thrombin) receptor-like 3), read-out: % GPCR activation compared to TPA.
The mark [15] stands for this setting: TBXA2R (thromboxane A2 receptor), read-out: % GPCR activation compared to TPA.
[16] abbreviates: GALR1 (galanin receptor 1), read-out: % GPCR activation compared to TPA.
[17] abbreviates: GHSR (growth hormone secretagogue receptor), read-out: % GPCR activation compared to TPA.
[18] abbreviates: read-out: % GPCR activation compared to TPA, NMBR (neuromedin B receptor).
The mark [19] stands for this setting: read-out: % GPCR activation compared to TPA, FPR1 (formyl peptide receptor 1).
The mark [20] stands for this setting: read-out: % GPCR activation compared to TPA, MRGPRX3 (MAS-related GPR, member X3).
The mark [21] stands for this setting: read-out: % GPCR activation compared to TPA, SSTR5 (somatostatin receptor 5).
[22] abbreviates: read-out: % GPCR activation compared to TPA, F2RL3 (coagulation factor II (thrombin) receptor-like 3).
The mark [23] stands for this setting: read-out: % GPCR activation compared to TPA, TBXA2R (thromboxane A2 receptor).
Where [24] appears, read: read-out: % GPCR activation compared to TPA, GALR1 (galanin receptor 1).
The mark [25] stands for this setting: read-out: % GPCR activation compared to TPA, GHSR (growth hormone secretagogue receptor).

T7 sequence (Q92847 whole entry): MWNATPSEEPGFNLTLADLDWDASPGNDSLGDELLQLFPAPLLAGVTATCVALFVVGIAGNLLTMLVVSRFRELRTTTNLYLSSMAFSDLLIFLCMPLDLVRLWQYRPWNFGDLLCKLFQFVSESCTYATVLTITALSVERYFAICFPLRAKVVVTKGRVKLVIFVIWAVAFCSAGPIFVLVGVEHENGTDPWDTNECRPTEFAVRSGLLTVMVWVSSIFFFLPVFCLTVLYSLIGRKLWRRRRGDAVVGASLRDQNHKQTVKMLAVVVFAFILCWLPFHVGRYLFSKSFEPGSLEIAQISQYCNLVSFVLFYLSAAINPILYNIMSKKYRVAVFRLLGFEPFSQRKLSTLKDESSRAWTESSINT
T1 sequence (P28336 whole entry): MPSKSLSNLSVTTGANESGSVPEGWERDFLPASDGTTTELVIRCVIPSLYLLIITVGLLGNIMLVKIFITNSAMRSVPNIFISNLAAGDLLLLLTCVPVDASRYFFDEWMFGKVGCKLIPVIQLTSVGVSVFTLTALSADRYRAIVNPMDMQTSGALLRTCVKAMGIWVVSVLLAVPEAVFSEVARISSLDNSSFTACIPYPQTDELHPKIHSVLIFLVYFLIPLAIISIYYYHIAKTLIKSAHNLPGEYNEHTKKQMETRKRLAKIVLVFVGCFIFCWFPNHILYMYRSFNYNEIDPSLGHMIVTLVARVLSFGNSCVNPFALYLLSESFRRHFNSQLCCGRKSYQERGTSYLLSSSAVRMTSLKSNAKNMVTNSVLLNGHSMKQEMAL
T3 sequence (Q96LB0 whole entry): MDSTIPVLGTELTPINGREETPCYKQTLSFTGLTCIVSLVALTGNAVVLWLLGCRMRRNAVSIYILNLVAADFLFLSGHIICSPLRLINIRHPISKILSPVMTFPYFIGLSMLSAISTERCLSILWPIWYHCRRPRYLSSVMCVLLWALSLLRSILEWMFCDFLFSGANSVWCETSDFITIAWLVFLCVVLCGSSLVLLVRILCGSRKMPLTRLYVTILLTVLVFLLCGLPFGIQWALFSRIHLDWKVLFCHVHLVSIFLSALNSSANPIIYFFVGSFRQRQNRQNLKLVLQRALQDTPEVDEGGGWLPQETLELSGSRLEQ

On to `NC(=O)c1nc(F)cnc1O` [favipiravir, 6-fluoro-3-hydroxy-2-pyrazinecarboxamide], for which the activation at 10 µM on 348 GPCRs [1] (setting [10]) is -0.624%; on 348 GPCRs [5] (setting [13]) it was 2.28%; at 348 GPCRs [6] (setting [14]), -2.75%; on 348 GPCRs [7] (setting [15]), -0.974%; at 348 GPCRs [9] (setting [17]), -3.33%. Also, the activation at 100 µM is -5.47% on 348 GPCRs [2] (setting [11]), -0.33% at 348 GPCRs [4] (setting [12]) and 7.08% at 348 GPCRs [8] (setting [16]). Further, the “% GPCR activation compared to TPA” value on 348 GPCRs [3] is on record as 0.5554%.
As to `CC(C)OC(=O)[C@H](C)N[P@](=O)(OC[C@H]1O[C@@H](n2ccc(=O)[nH]c2=O)[C@](C)(F)[C@@H]1O)Oc1ccccc1` [sofosbuvir], the activation at 10 µM on 348 GPCRs [1] (setting [18]) is -0.697%; on 348 GPCRs [5] (setting [21]), -0.552%; on 348 GPCRs [6] (setting [22]), 1.49%; at 348 GPCRs [7] (setting [23]), 0.249%; on 348 GPCRs [9] (setting [25]), -0.354%. Besides, the activation at 100 µM at 348 GPCRs [2] (setting [19]) was -0.986%; at 348 GPCRs [4] (setting [20]) it was 0.522%; on 348 GPCRs [8] (setting [24]) it was -0.0144%. Moreover, the “% GPCR activation compared to TPA” value on 348 GPCRs [3] is listed as -1.207%.
Consider `CCC(CC)COC(=O)[C@H](C)N[P@](=O)(OC[C@H]1O[C@@](C#N)(c2ccc3c(N)ncnn23)[C@H](O)[C@@H]1O)Oc1ccccc1` [remdesivir], for which the activation at 10 µM at 348 GPCRs [1] (setting [18]) was 0.461%; on 348 GPCRs [5] (setting [21]) it was -0.348%; on 348 GPCRs [6] (setting [22]) it was -0.777%; on 348 GPCRs [7] (setting [23]), -0.881%; at 348 GPCRs [9] (setting [25]) it was 12.2%. Moreover, the activation at 100 µM is -4.31% on 348 GPCRs [2] (setting [19]), -0.608% on 348 GPCRs [4] (setting [20]) and 6.53% at 348 GPCRs [8] (setting [24]). The “% GPCR activation compared to TPA” value at 348 GPCRs [3] is -0.07183%.
`N#C[C@@]1(c2ccc3c(N)ncnn23)O[C@H](CO)[C@@H](O)[C@H]1O` [GS441524]: the activation at 10 µM is -1.1% at 348 GPCRs [1] (setting [10]); -0.162% on 348 GPCRs [5] (setting [13]); 0.403% at 348 GPCRs [6] (setting [14]); -0.528% at 348 GPCRs [7] (setting [15]); -4.16% at 348 GPCRs [9] (setting [17]). In addition, the activation at 100 µM was -4.1% on 348 GPCRs [2] (setting [11]), -0.726% on 348 GPCRs [4] (setting [12]) and 0.832% on 348 GPCRs [8] (setting [16]). Besides, the “% GPCR activation compared to TPA” value on 348 GPCRs [3] is listed as -1.385%.
Take `CC(C)C(=O)OC[C@H]1O[C@@H](n2ccc(NO)nc2=O)[C@H](O)[C@@H]1O` [molnupiravir]: the activation at 10 µM at 348 GPCRs [1] (setting [10]) is 0.279%; on 348 GPCRs [5] (setting [13]) it was -2.28%; on 348 GPCRs [6] (setting [14]), 2.35%; on 348 GPCRs [7] (setting [15]), -1.16%; on 348 GPCRs [9] (setting [17]), 0.166%. For the same compound, the activation at 100 µM at 348 GPCRs [2] (setting [11]) was -0.204%; at 348 GPCRs [4] (setting [12]), -1.5%; on 348 GPCRs [8] (setting [16]), 1.08%. In addition, the “% GPCR activation compared to TPA” value on 348 GPCRs [3] is on record as -0.994%.
